Measurements as given in patent publication US11117907B2, “Curcuminoid-inspired synthetic compounds as anti-tumor agents” (University of North Florida Board of Trustees, priority 2017, dated 2021).
Like-named read-outs stand apart in the source and are kept apart here.

Assays:
MM1.S = assay: Apoptosis (annexin-V/PI flow cytometry), MM1.S; assay type: cell-based, human
Experimental: (§1) Apoptotic cell death in multiple myeloma (MM) cancer cell lines (RPMI-8226, KMS-11, MM1.S) as well as peripheral blood mononuclear cells (PBMCs) from healthy donors that were exposed to various concentrations of (A) CUR-analog 1 (Indole-4 CUR—BF2) and (B) CUR-analog 2 (Indole-5 CUR) or (C) the FDA-approved Bcl-2 inhibitor (venetoclax, used for comparison) was assessed.
(§2) Cell lines and PBCMs (peripheral blood mononuclear cells from healthy donors as non-cancer CONTROL) were seeded in quadruplicate (technical replicates). CellTiter-Glo® 2.0 reagent equal to the volume of cell culture medium present in each well was added and the plate was left to incubate at room temperature for 10 minutes to stabilize the luminescent signal. Luminescent signal/intensity from the 384-well plate was read on a plate reader. Cells/cell lines used: BCWM.1 (Waldenstrom macroglobulinemia cell line, WM); RPMI-8266 (Multiple myeloma cell line, MM); RS4; 11 (Acute lymphoblastic leukemia, ALL). For Apoptosis study cells were treated with the indicated agents and concentrations (FIG. 74) for 24 h and stained with annexin-V and propidium iodide (PI), followed by flow cytometry analysis.

[1] = tested on: MM cell lines (MM1.S, KMS11, RPMI-8226); assay: Cell proliferation and viability in multiple myeloma cell lines (CellTiter Glo 2.0, 72 h); assay type: cell-based, human; details: read-out: median IC50 concentration in MM cell lines
Experimental: Cell proliferation and viability were determined in multiple myeloma (MM) cancer cell lines (RPMI-8226, KMS-11, MM1.S) as well as in peripheral blood mononuclear cells (PBMCs) from healthy donors that were exposed to various concentrations of (A) CUR-analog 1 (3-BF2) and (B) CUR-analog 2 (CUR 2) for 72 hours using the CellTiter Glo 2.0 assay.
as §2

KMS-11 = assay: Apoptosis (annexin-V/PI flow cytometry), KMS-11; assay type: cell-based, human
Experimental: as §1, §2

PBMCs = assay: Apoptosis (annexin-V/PI flow cytometry), healthy donor PBMCs; assay type: cell-based, human
Experimental: as §1, §2

RPMI-8226 = assay: Apoptosis (annexin-V/PI flow cytometry), RPMI-8226; assay type: cell-based, human; details: 2.5 uM, 24 h
Experimental: as §1, §2

[2] = tested on: NCI-60 human tumor cell lines; assay: NCI-60 one-dose screening (10^−5 M); assay type: cell-based
Excerpt: The CUR—BF2 adducts 5, 10, and 19, the (CF3)2—CUR 20 and the (CF3)2—CUR—BF2 adduct 21 of FIG. 2 were screened at the National Cancer Institute using NCI-60 cell one-dose protocol (10^−5 M).
(§3) Samples were submitted to the National Cancer Institute (NCI of NIH) Developmental Therapeutics anticancer screening program (DTP) for human tumor cell line assay by NCI-60 screening against leukemia, lung, colon, and CNS cancers, as well as melanoma, ovarian, renal, prostate, and breast cancers. Compounds are initially tested at a single dose of 10-5 molar. Data are reported as mean graph of percent growth (GP). Growth inhibition is shown by values between 0 and 100 and lethality by values less than zero. Compounds that meet selection criteria based on one-dose assay are then tested against 60 cell panel at five concentrations.
as §3, with “NCI-60 assay: Samples” for “Samples”, “10^−5” for “10-5”
as §3, with “NCI-60 assay: samples” for “Samples”, “10^−5” for “10-5”, “(GP). Selected data output are shown in SI file.” for “(GP).”, “represented” for “shown”, “zero.” for “zero. Compounds that meet selection criteria based on one-dose assay are then tested against 60 cell panel at five concentrations.”

[3] = tested on: Various cancer cell lines; assay: Cancer cell line growth at 1×10^−5 M curcuminoid; assay type: cell-based; details: all cancer cell lines
Experimental: Various cancer cell lines were seeded into 384-well culture plates at 2×10^3 cell/well and incubated at 5% CO2, 37° C. The culture media was replaced with 1×10^−5 M of curcuminoid; 1,7-bis(2,3,6-trimethoxyphenyl)hepta-1,4,6-triene-3,5-dione, 7-bis(3-benzothiophene)hepta-1,4,6-triene-3,5-dione, or D-793176. The cell line growth was measured.

MDA231 = assay: In vitro cell viability bioassay, MTT, MDA231; assay type: cell-based, human
Experimental: (§4) To evaluate the cell growth inhibitory and apoptosis inducing effects of the fluorinated curcuminoids and their BF2 adducts, in-vitro bioassay tests were performed on […] different cancer cell lines namely: MOLT-4 (human leukemia suspension cancer cell line), PC3 and LNCap (human […] prostate cancer cell lines respectively), A549 (lung cancer), and MDA231 (breast cancer), and the results are sketched in Table 3.
(§5) The cell viability/anti-proliferative activity of the curcuminoids against PC3 (human androgen-insensitive prostate cancer cell line), LNCap (human-androgen sensitive prostate cancer cell line), A549 (lung cancer), and MDA231 (breast cancer) were determined by means of 3-(4,5-dimethyl-2-thiazolyl)-2,5-diphenyl-2H-tetrazolium bromide (MTT) assay (the tetrazolium salt was a commercial sample). (R. N. Khaybullin, et al., Molecules, 2014, 19, 18676-18689). The ability of the curcuminoids to affect proliferations of suspension cell lines (MOLT-4) was tested by the CellTiter-Glo® Luminescent Cell Viability Assay (purchased from Promega Madison, Wis., USA) to determine the number of viable cells in culture based on quantitation of the ATP present. The IC50 values were obtained from fitting data with GraphPad software to determine the growth inhibition in the presence of test compounds. (R. N. Khaybullin, et al., Molecules, 2014, 19, 18676-18689).

MOLT-4 = assay: In vitro cell viability bioassay, CellTiter-Glo, MOLT-4; assay type: cell-based, human
Experimental: as §4, §5

A549 = assay: In vitro cell viability bioassay, MTT, A549; assay type: cell-based; details: Homo sapiens, MTT assay, read-out: Lung Cancer IC50 (μM) A549
Experimental: as §4, §5

PC3 = assay: In vitro cell viability bioassay, MTT, PC3; assay type: cell-based; details: Homo sapiens, PC-3; MTT assay; read-out: Prostate Cancer IC50 (μM) PC3
Experimental: as §4, §5

LNCap = assay: In vitro cell viability bioassay, MTT, LNCap; assay type: cell-based; details: Homo sapiens, MTT assay, read-out: Prostate Cancer IC50 (μM) LNCap
Experimental: as §4, §5

MM cell lines = assay: Apoptosis (annexin-V/PI flow cytometry), median over MM cell lines; assay type: cell-based, human; details: 1.25, 2.5, 5 uM and 10 uM
Experimental: as §1, with “assessed. Bar graphs show % of apoptotic cells (annexin-V+PI positive cells) normalized to basal apoptosis observed in control (DMSO-treated) cells.” for “assessed.”
In contrast, in KMS11 and MM1.S cells, notable apoptosis (54% and 15%, respectively) was seen only at a 10 uM concentration.
as §2, with “For Apoptosis study cells were treated with the indicated agents and concentrations (FIG. 74) for 24 h and stained with annexin-V and propidium iodide (PI), followed by flow cytometry analysis.” left out

[4] = Homo sapiens, MDA-MB-231, Table 4, repeats Table 3, read-out: IC50 MDA231 (Breast cancer)
[5] = Table 4, repeats Table 3, read-out: IC50 MDA231 (Breast cancer)
[6] = Table 5, repeats Table 3, read-out: Leukemia MOLT-4 IC50
[7] = Homo sapiens, MOLT-4, CellTiter-Glo Luminescent Cell Viability Assay, read-out: Leukemia IC50 (μM) MOLT-4
[8] = Homo sapiens, MDA-MB-231, MTT assay, read-out: Breast Cancer IC50 (μM) MDA231

F[B-]1(F)OC(/C=C/c2cccc3[nH]ccc23)=CC(/C=C/c2cccc3[nH]ccc23)=[O+]1 [3-BF2, Indole-4-Curcuminoid-BF2 adduct]
apoptosis, MM1.S (MM1.S; 2.5 uM, 24 h): 47% | IC50 [1]: 2.1 µM | apoptosis, KMS-11 (KMS-11; 2.5 uM, 24 h): 79% | apoptosis, healthy donor PBMCs (PBMCs; […] and 2.5 uM, 24 h): 23-28% | apoptosis, RPMI-8226 (RPMI-8226): 60%

F[B-]1(F)OC(/C=C/c2csc3ccccc23)=CC(/C=C/c2csc3ccccc23)=[O+]1 [7-BF2, Benzothiophene-3-Curcuminoid-BF2 adduct]
anti-proliferative activity by the NCI-60 in-vitro assay ([2]; 10^−5 molar, Example 5): notable anti-proliferative activity

1,7-bis(2,3,6-trimethoxyphenyl)hepta-1,4,6-triene-3,5-dione
cell line growth relative to non-treated cells [3]: ≤ 50%

COc1cc(/C=C/C(=O)C(F)(F)C(=O)/C=C/c2ccc(OC)c(OC)c2)ccc1O
IC50 (MDA231; [4]): 2.2 µM

COc1cc(/C=C/C(=O)C=C(O)/C=C/c2ccc(O)c(OC)c2)ccc1O [drawing 75]
IC50 (MDA231; [5]): 11.5 µM

COc1cc(/C=C/C(=O)C=C(O)/C=C/c2ccc(O)c(OC)c2)ccc1O [drawing 82]
IC50 (MOLT-4; [6]): 19 µM

(1E,4E,6E)-5-Hydroxy-1,7-bis(indole-5)hepta-1,4,6-trien-3-one [compound 2 of Example 5]
apoptosis, MM1.S (MM1.S; 10 uM): 15% | apoptosis, KMS11 (KMS-11; 10 uM): 54% | apoptosis, RPMI-8226 (RPMI-8226): 65%

COc1cc(/C=C/C(=O)CC(=O)/C=C/c2ccc(O)c(OC)c2)ccc1O [compound 1 of FIG. 2, curcumin]
IC50 (A549): 18 µM | IC50 (PC3): 9 µM | IC50 (MOLT-4; [7]): 19 µM | IC50 (LNCap): 9.7 µM | IC50 (MDA231; [8]): 11.5 µM

COc1cc(F)c(/C=C/C2=CC(/C=C/c3cc(OC)c(OC)cc3F)=[O+][B-](F)(F)O2)cc1OC [drawing 72]
IC50 (MDA231; [5]): 1.7 µM

Fc1ccc(/C=C/C2=CC(/C=C/c3ccc(F)cc3)=[O+][B-](F)(F)O2)cc1
IC50 (MDA231; [5]): 1 µM

O=C(/C=C/c1ccc(F)cc1)C(F)=C(O)/C=C/c1ccc(F)cc1
IC50 (MDA231; [5]): 12 µM

COc1ccc(/C=C/C(=O)C(F)=C(O)/C=C/c2ccc(OC)c(OC)c2)cc1OC [drawing 85]
IC50 (MOLT-4; [6]): 0.076 µM

COc1ccc(/C=C/C(=O)C=C(O)/C=C/c2ccc(OC)c(OC)c2)cc1OC [drawing 70]
IC50 (MDA231; [5]): 0.28 µM

CC1(C)CCC(CN2CCN(c3ccc(C(=O)NS(=O)(=O)c4ccc(NCC5CCOCC5)c([N+](=O)[O-])c4)c(Oc4cnc5[nH]ccc5c4)c3)CC2)=C(c2ccc(Cl)cc2)C1 [Venetoclax, reference compound]
cell death in healthy donor PBMCs (PBMCs; 1.25, 2.5, 5 uM and 10 uM): ~10% | median apoptosis, MM cell lines (MM cell lines): 15%

COc1cc(F)c(/C=C/C2=CC(/C=C/c3cc(OC)c(OC)cc3F)=[O+][B-](F)(F)O2)cc1OC [drawing 86]
IC50 (MOLT-4; [6]): 0.01 µM

O=C(/C=C/c1ccc(F)cc1)C(F)(F)C(=O)/C=C/c1ccc(F)cc1 [compound 12]
IC50 (MOLT-4; [7]): 1.32 µM | IC50 (LNCap): 29.2 µM | IC50 (MDA231; [8]): 6.7 µM

COc1ccc(/C=C/C(=O)C(F)=C(O)/C=C/c2ccc(OC)c(OC)c2)cc1OC [drawing 69]
IC50 (MDA231; [5]): 0.023 µM

COc1ccc(/C=C/C2=CC(/C=C/c3ccc(OC)c(OC)c3)=[O+][B-](F)(F)O2)cc1OC [drawing 73]
IC50 (MDA231; [5]): 2 µM

COc1ccc(/C=C/C2=CC(/C=C/c3ccc(OC)c(OC)c3)=[O+][B-](F)(F)O2)cc1OC [drawing 84]
IC50 (MOLT-4; [6]): 0.00056 µM

F[B-]1(F)OC(/C=C/c2ccc(C(F)(F)F)cc2)=CC(/C=C/c2ccc(C(F)(F)F)cc2)=[O+]1
NCI-60 cell screening ([2]; words in the IC50 MDA231 column of Table 4): NCI-60 cell screening modest activity

O=C(/C=C/c1ccc(F)cc1)C(F)(F)C(=O)/C=C/c1ccc(F)cc1 [drawing 77]
IC50 (MDA231; [4]): 6.7 µM

COc1cc(/C=C/C(=O)C(F)=C(O)/C=C/c2ccc(O)c(OC)c2)ccc1O
IC50 (MDA231; [5]): 6.2 µM

O=C(/C=C/c1ccc(SC(F)(F)F)cc1)/C=C(O)\C=C\c1ccc(SC(F)(F)F)cc1 [compound 19 of FIG. 35, (1E,4E,6E)-5-Hydroxy-1,7-bis(4-trifluoromethylthiophenyl)hepta-1,4,6-trien-3-one]
anti-proliferative potency against HCT-116 ([2]; dose mean graph, FIG. 22): high anti-proliferative potency

COc1ccc(/C=C/C(=O)C=C(O)/C=C/c2ccc(OC)c(OC)c2)cc1OC [drawing 83]
IC50 (MOLT-4; [6]): 0.043 µM
